Holding throughout (assay): NCI tumour cell line growth inhibition, 48 h
The test system of assay [1] is 786-0.
Assay [2] concerns CCRF-CEM.
For assay [3], the system named is EKVX.
The test system of assay [4] is HCC 2998.
In assay [5] the test system is HT-29.
The test system of assay [6] is MOLT-4.
Assay [7] concerns NCI-H522.
For assay [8], the system named is OVCAR-3.
Assay [9] relates to RXF 393.
In assay [10] the test system is SF-539.
Assay [11] concerns SK-MEL-5.
The subject of assay [12] is SN12C.
The subject of assay [13] is SNB-19.
For assay [14], the system named is UACC-257.
In assay [15] the test system is NCI-H23.

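Method: 48-hour compound exposure of cells in 96-well plates, five concentrations, linear interpolation of endpoints. Here, GI50 denotes the concentration required for 50% inhibition of growth.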 Calls of active or inactive are those of the source. Cut-off read from the data, not from the text of the source: active = GI50 up to about 1.1 µM and inactive = higher.

In the case of `CC(C)CCC[C@@H](C)C1CCC2[C@@H]3CC=C4C[C@@H](C(=O)NCC[N+](C)(C)CCCS(=O)(=O)[O-])CC[C@]4(C)C3CC[C@@]21C` (stereo partly drawn), the GI50 was 17.2 µM (inactive) in assay [1]; 16.2 µM (inactive) in assay [2]; 16.9 µM (inactive) in [3]; 19.8 µM (inactive) in assay [4]; 18 µM (inactive) in assay [5]; 18.2 µM (inactive) in [6]. Besides, the GI50 in assay [7] is 11.5 µM (inactive); in assay [8], 16.4 µM (inactive); in assay [9], 20.9 µM (inactive); in assay [10], 21.3 µM (inactive); in [11] it was 19.9 µM (inactive); in assay [12] it was 17.9 µM (inactive). The results for the GI50 in assay [13] and in [14] were 21.8 µM (inactive) and 20 µM (inactive), respectively.

For the compound `CC(/C=C/NNC1=NN=C(c2ccccc2)C(c2ccccc2)N1)Sc1ccccc1N` (stereo not drawn), the GI50 in assay [1] was 3.71 µM (inactive); in assay [2], 2.46 µM (inactive); in assay [3], 18.5 µM (inactive); in [4], 15.7 µM (inactive); in assay [5] it was 11 µM (inactive); in [6], 3.43 µM (inactive). The GI50 in assay [15] was 12.9 µM (inactive); in assay [7], 3.56 µM (inactive); in assay [8] it was 10.3 µM (inactive); in [10] it was 8.24 µM (inactive); in [11], 9.66 µM (inactive); in [12] it was 5.79 µM (inactive). Besides, the GI50 in assay [13] was 12.5 µM (inactive); in assay [14], 7.06 µM (inactive).

With `O=c1[nH]c(S)nc2c1sc(=S)n2-c1ccccc1`, the GI50 in [1], in assay [2], in assay [3], in assay [4], in assay [5] and in assay [6] was > 100 µM (inactive) in each case. The GI50 in assay [15], in assay [7], in assay [8], in assay [9], in assay [10] and in [11] was > 100 µM (inactive) in each case. Besides, the GI50 in assay [12], in [13] and in [14] was > 100 µM (inactive) throughout.

Regarding `COc1ccc(-c2cc(-c3cc(Cl)cc(Br)c3O)nc(O)n2)cc1`, the GI50 in [1] was 15.5 µM (inactive); in [2], 19.8 µM (inactive); in [3], 5.87 µM (inactive); in assay [4] it was 19.9 µM (inactive); in assay [5], 17.7 µM (inactive); in [6] it was 13.2 µM (inactive). In addition, the GI50 was 14 µM (inactive) in assay [15]; 13.4 µM (inactive) in assay [7]; 17.5 µM (inactive) in assay [8]; 14.5 µM (inactive) in assay [9]; 14.7 µM (inactive) in assay [10]; 15.5 µM (inactive) in assay [12]. Besides, the values for the GI50 in assay [13] and in assay [14] were 23.9 µM (inactive) and 17.7 µM (inactive), respectively.

As for `BrC12C3C4C5C(C(C43)C13OCCO3)C52` (stereo not drawn), the GI50 in [1], in assay [2], in assay [3], in assay [4], in assay [5] and in assay [6] was > 100 µM (inactive) each time. Moreover, the GI50 in assay [15], in [7], in assay [8], in assay [9], in [10] and in assay [11] was > 100 µM (inactive) each time. Also, the GI50 in assay [13] and in [14] was > 100 µM (inactive) each time.

On to `N#[N+][c-]1c(-c2ccccc2)n[nH]c1=O`, for which the GI50 in [1], in assay [2], in [3], in assay [4], in assay [5] and in assay [6] was > 100 µM (inactive) throughout. In addition, the GI50 in assay [15], in [7], in [8], in assay [9], in assay [10] and in assay [12] was > 100 µM (inactive) in each case. Besides, in assay [14], the GI50 is > 100 µM (inactive).

Take `Cc1ccc2nc(NC(=O)C(=O)C(C#N)c3nc4ccccc4s3)sc2c1` (stereo not drawn): the GI50 in [1] is 44.5 µM (inactive); in assay [3], 39 µM (inactive); in assay [4], 79.8 µM (inactive); in [5], 26.8 µM (inactive); in assay [6], 20.4 µM (inactive); in assay [15], 35 µM (inactive). The GI50 in [7] is 32.1 µM (inactive); in [8], 23.4 µM (inactive); in assay [9] it was 31.5 µM (inactive); in assay [10], 22.3 µM (inactive); in [11], 19.4 µM (inactive); in assay [12] it was 54 µM (inactive). Further, the GI50 in [13] was 31.8 µM (inactive); in [14], 28 µM (inactive).

Turning to `CC(=O)O[C@@H]1CC(C)C2CC2C2=C(C(O)OC2O)[C@@H]1C(C)CCC=C(C)C` (stereo partly drawn), the GI50 was 21.4 µM (inactive) in assay [1]; 24.8 µM (inactive) in assay [2]; 40 µM (inactive) in [3]; 20.8 µM (inactive) in [4]; 19 µM (inactive) in [5]; 24.6 µM (inactive) in assay [6]. Also, the GI50 in assay [15] is 22.2 µM (inactive); in [7] it was 15.3 µM (inactive); in assay [9], 17.3 µM (inactive); in assay [10], 18.9 µM (inactive); in [11] it was 25.3 µM (inactive); in assay [12], 18.4 µM (inactive). Moreover, the GI50 in assay [13] is 33.7 µM (inactive); in assay [14], 24.1 µM (inactive).

Turning to `CCOC(=O)CCC(=O)C1c2cccc(O)c2C(=O)c2c(O)cccc21`, the GI50 in assay [1] was 1.74 µM (inactive); in assay [2], 1.1 µM (active); in assay [4], 0.537 µM (active); in assay [5], 2.74 µM (inactive); in assay [6], 2.31 µM (inactive); in [15], 1.37 µM (inactive). The GI50 is 0.408 µM (active) in assay [7]; 0.942 µM (active) in assay [8]; 0.71 µM (active) in [9]; 0.411 µM (active) in assay [10]; 0.226 µM (active) in assay [11]; 1.33 µM (inactive) in assay [12]. The figures for the GI50 in assay [13] and in assay [14] were 1.56 µM (inactive) and 1.69 µM (inactive), respectively.

Regarding `O=C1C(c2ccccc2)=[N+]([O-])c2ccc(Cl)cc21`, the GI50 was 82.4 µM (inactive) in assay [1]; 25.9 µM (inactive) in [2]; 16.9 µM (inactive) in [3]; 22 µM (inactive) in assay [5]; 23.6 µM (inactive) in assay [6]; 31.6 µM (inactive) in assay [15]. Moreover, the GI50 was 15.3 µM (inactive) in assay [7]; 23.3 µM (inactive) in [8]; 13.2 µM (inactive) in assay [9]; 20.2 µM (inactive) in assay [10]; 17.3 µM (inactive) in assay [11]; 24.2 µM (inactive) in assay [12]. In addition, the GI50 in assay [13] was 34.5 µM (inactive); in assay [14] it was 19.3 µM (inactive).

For `NCCSc1cc(O)c2c(c1N)C(=O)c1ccccc1C2=O`, the GI50 in [1] was 29.9 µM (inactive); in [2] it was 16.8 µM (inactive); in assay [3] it was > 100 µM (inactive); in assay [4] it was > 100 µM (inactive); in [5] it was 34.1 µM (inactive); in assay [6], 20.9 µM (inactive). The GI50 in assay [15] was > 100 µM (inactive); in assay [7], 19.6 µM (inactive); in [8] it was 43 µM (inactive); in assay [9], 27.7 µM (inactive); in assay [10], 92.5 µM (inactive); in [11], 12.9 µM (inactive). For the same compound, the GI50 in assay [12] is 47.1 µM (inactive); in assay [13] it was 34 µM (inactive).

`CCN(CC)C(=O)CCn1ccc(=O)[nH]c1=O`: the GI50 in assay [1], in assay [2], in assay [3], in assay [5], in assay [6] and in assay [15] was > 100 µM (inactive) in each case. For the same compound, the GI50 in [7], in assay [8], in assay [9], in assay [10], in assay [11] and in [12] was > 100 µM (inactive) each time. The GI50 in assay [13] was > 100 µM (inactive).

With `CSC(=O)C[C@@]12O[C@@H]([C@@H](C)C3CCC4[C@@H]5C(O)CC6=CC(=O)C=C[C@]6(C)C5CC[C@@]43C)C[C@](C)(O1)C(C)(C)O2` (stereo partly drawn), the GI50 in assay [1] was 16.1 µM (inactive); in [2], 3.86 µM (inactive); in [4], 26.2 µM (inactive); in [5], 14.5 µM (inactive); in [15] it was > 10 µM (inactive); in [7] it was 14.1 µM (inactive). Besides, the GI50 in [8] is 15.1 µM (inactive); in assay [9] it was 11.6 µM (inactive); in assay [10], 16.3 µM (inactive); in assay [12] it was 16.6 µM (inactive); in assay [13], 17.5 µM (inactive); in assay [14], 12.6 µM (inactive).

As for `O=C(NCO)NCOCn1c(=O)n(CO)c(=O)n(CO)c1=O`, the GI50 in assay [1] is 34.6 µM (inactive); in [2], 14.4 µM (inactive); in assay [3], > 100 µM (inactive); in [4] it was > 100 µM (inactive); in assay [5] it was 32.6 µM (inactive); in assay [6], 23.4 µM (inactive). For the same compound, the GI50 was 19.8 µM (inactive) in assay [15]; 84.1 µM (inactive) in [8]; 15.2 µM (inactive) in [9]; > 100 µM (inactive) in assay [10]; 41.5 µM (inactive) in [11]; > 60.7 µM (inactive) in assay [12]. Further, the GI50 was > 31.6 µM (inactive) in assay [13] and 49.9 µM (inactive) in [14].

The record behind these values is ChEMBL document CHEMBL1201862, “PubChem BioAssay data set” (2004).
